Measurements from patent US20250387458A1, “COACTIVE COMBINATIONS OF ANTIMICROBIALS WITH DISPERSINB” (KANE BIOTECH INC., priority 2020, published 2025).
Entries after “also recorded” stand apart in the source; their conditions may differ. Where a name gives a salt, the structure may show the parent alone. Positions of bridges follow the written chain, without caps; N, C: chain ends. Non-standard residues stand in square brackets, D forms with d. Residues, ends and D or L forms follow the SMILES beside them. ξ: configuration not given here. *: point of attachment. X1 = CC[C@H](C)CCCCC(=O)*; dDab = NCC[C@@H](N)C(=O)O; Dab = NCC[C@H](N)C(=O)O; ξDab = NCCC(N)C(=O)O

Experiments:
S. epidermidis biofilm [1] = assay: Inactivation of biofilm embedded bacteria using liquid buffer formulation (Method 1), S. epidermidis; format: cell-based, Staphylococcus epidermidis; settings: for Biofilm inactivation: buffer formulation, antimicrobial tested with DspB; for Effect of DspB on activity of the antimicrobial against biofilm embedded S. epidermidis: buffer, antimicrobial plus DspB vs antimicrobial alone, P<0.05
Description: (§1) Method 1: Method to Test Inactivation of Biofilm Embedded Bacteria Using Liquid Buffer Formulation
(§2) S. epidermidis or E. coli biofilm were each grown in 96-well plate and washed three times to remove planktonic cells. Then biofilm was treated using 50 mM phosphate or citrate buffer, (no treatment control), buffer solutions containing DspB at 10-200 μg/ml, buffer solution containing antimicrobial alone, and buffer solution DspB plus antimicrobial for varying exposure times (10 min-3 h). After treatments, biofilm embedded bacteria was dispersed, diluted serially and plated on Tryptic soy agar plates. Data was analyzed using ANOVA and Tukey's test.

E. coli biofilm = assay: Inactivation of biofilm embedded bacteria using liquid buffer formulation (Method 1), E. coli; format: cell-based, Escherichia coli; settings: antimicrobial plus DspB vs antimicrobial alone
Description: as §1, §2

S. epidermidis biofilm [2] = assay: Compatibility between antimicrobials or antibiotics and DspB, biofilm dispersal assay in buffer (Method 3); format: cell-based, Staphylococcus epidermidis; settings: for Biofilm dispersal when DspB and antimicrobial were added together: 20 μg/ml DspB, mixture used at 0 and 2 h, 10 min treatment
Description: Method 3: Method to Test Compatibility Between Antimicrobials or Antibiotics and DspB Using Biofilm Dispersal Assay
S. epidermidis biofilm was grown in 96-well plate and washed three times using sterile water to remove planktonic cells. Antimicrobials or antibiotics and DspB formulations were prepared in 50 mM phosphate or citrate buffer and stored at 37° C. for 2 h and used for treating biofilm at 0 and 2 h. Biofilm was treated using antimicrobials or antibiotics and DspB formulations for 10 min. After treatments, solutions were removed and washed 3 times to remove dispersed biofilm. Remaining biofilms in 96-well plates were stained using Crystal violet, unbound crystal violet was removed by washing the wells with sterile water, the biofilm bound crystal violet was eluted using 33% acetic acid, and the absorbance at 620 nm was taken using a microwell plate reader. Percent biofilm removal was calculated. Data was analyzed using ANOVA and Tukey's test.

DspB [3] = assay: Compatibility between antimicrobials or antibiotics and DspB, enzymatic assay in buffer (Method 4); format: biochemical, Aggregatibacter actinomycetemcomitans
Description: Method 4: Method to Test Compatibility Between Antimicrobials or Antibiotics and DspB Using Enzymatic Assay
DspB (200 μg/mL) and antimicrobial agent/antibiotic stocks were prepared in respective buffers. 10 mM paranitrophenol (PNP) in 400 mM sodium carbonate, and the buffer (same DspB stock) was used as the standard solution, and negative control, respectively. DspB stock and antimicrobial stock were mixed in equal proportions, and then 4×5 μl samples were taken at defined time points (0, 5, 10, 20, 30, 60, and 120 min) and used to measure the DspB enzyme activity. DspB enzymatic activity was measured using β-N-Acetylglucosaminidase assay kit from Sigma (product code CS0780) in 96-well microtiter plate following the manufacturer's instructions. The plate was incubated for 30 minutes before terminating the reaction. Data analysis was done in Excel. Student T test (paired) was performed for each time point separately using DspB activity in mixture and in control sample as two set of variables.

S. epidermidis biofilm [4] = assay: Biofilm dispersal by DspB gel formulations (Method 5); format: cell-based, Staphylococcus epidermidis; settings: for Biofilm dispersal of gel containing DspB and antimicrobial compared with gel containing DspB alone: PF127 gel, 20 μg/ml DspB
Description: Method 5: Method to Test Biofilm Dispersal by DspB Gel Formulations
S. epidermidis biofilm was grown in 96-well plate and washed three times to remove planktonic cells. Then biofilm was treated using different DspB formulations appropriate treatment duration (10 min-1 h). After treatments, gels were removed and washed 3 times with sterile distilled water to remove excess gel and dispersed biofilm. Remaining biofilms in 96-well plates were stained using Crystal violet and unbound crystal violet was removed by washing the wells with sterile water, the biofilm bound crystal violet was eluted using 33% acetic acid, and the absorbance at 620 nm was taken using a microwell plate reader.
Gels containing DspB and selected concentrations of antimicrobials were formulated in 50 mM phosphate buffer or citrate buffer containing 16% PF127. DspB gel and antimicrobial gel were mixed together and incubated at 37° C. for 2 h. Biofilm dispersal was performed at 0 and 2 h using biofilm dispersal assay (Method 5). Blank gel, DspB gel and antimicrobial gels were included as controls.

DspB [5] = assay: Compatibility between antimicrobials or antibiotics and DspB in gel, enzymatic assay (Method 6); format: biochemical, Aggregatibacter actinomycetemcomitans; settings: for Enzymatic activity of DspB in the presence of the antimicrobial compared with DspB control: P≤0.05, carvacrol and cinnamaldehyde at 0-30 min, chloroxylenol at 5, 10, 20 and 60 min
Description: Method 6: Method to Test Compatibility Between Antimicrobials or Antibiotics and DspB in Gel Using Enzymatic Assay
DspB gel containing 200 μg/ml DspB, 16% […] (PF127), 50 mM Phosphate buffer or citrate, 100 mM NaCl, pH 5.9, and 2× concentrated antimicrobial agent/antibiotics in 16% Poloxamer 405, 50 mM Phosphate buffer, 100 mM NaCl, pH 5.9 were mixed in equal proportions. 4×5 μL aliquots were withdrawn at 0, 5, 10, 20, 30, 60, and 120 min for measurement of DspB enzymatic activity. DspB enzymatic activity was measured using β-N-acetylglucosaminidase assay kit from Sigma (product code CS0780) in 96-well microtiter plate following the manufacturer's instructions. The plate was incubated for 30 minutes before terminating the reaction. Data analysis was done in Excel. Student T test (paired) was performed for each time point separately using DspB activity in mixture and in control sample as two set of variables. […]

[6] = gel formulation, 100 μg/ml DspB

CCCCC(CC)CNC(=N)NC(=N)NCCCCCCNC(=N)NC(=N)NCC(CC)CCCC (centres unmarked) [Alexidine, Alexidine dihydrochloride]
Biofilm inactivation (S. epidermidis biofilm [1]): >5 log log CFU
Effect of DspB on activity of the antimicrobial against biofilm embedded S. epidermidis (S. epidermidis biofilm [1]): enhanced

COc1ccc2cc3[n+](cc2c1OC)CCc1cc2c(cc1-3)OCO2 [Berberine hydrochloride]
Effect of DspB on activity of the antimicrobial against biofilm embedded S. epidermidis (S. epidermidis biofilm [1]; hydrochloride): no synergistic activity
Effect of DspB on activity of the antimicrobial against biofilm embedded S. epidermidis (S. epidermidis biofilm [1]; listed as berberine hydrochloride, hydrochloride): did not enhance activity; also recorded: antagonism

Cc1ccc(C(C)C)cc1O [Carvacrol]
Biofilm inactivation (S. epidermidis biofilm [1]): >5 log log CFU
Effect of DspB on activity of the antimicrobial against biofilm embedded S. epidermidis (S. epidermidis biofilm [1]): enhanced
Effect of DspB on activity of the antimicrobial against biofilm embedded E. coli (E. coli biofilm; P<0.05): enhanced
Biofilm dispersal when DspB and antimicrobial were added together (S. epidermidis biofilm [2]; buffer): ≥ 73%
Synergy or compatibility with DspB, E: enzymatic (DspB [3]): E: synergy
Synergy or compatibility with DspB, M: microbiological (biofilm dispersal assay; biofilm inactivation not tested) (S. epidermidis biofilm [4]): M: compatible
Biofilm dispersal of gel containing DspB and antimicrobial compared with gel containing DspB alone (S. epidermidis biofilm [4]): similar
Synergy or compatibility with DspB, E: enzymatic (DspB [5]): E: synergy
Enzymatic activity of DspB in the presence of the antimicrobial compared with DspB control (DspB [5]; wound gel): Higher enzymatic activity

CCCCCCCCCCCCCCCC[n+]1ccccc1.[Cl-] [Cetylpyridinium chloride]
Synergy or compatibility with DspB, E: enzymatic (DspB [3]): E: no synergy
Synergy or compatibility with DspB, E: enzymatic (DspB [5]): E: compatible

Cc1cc(O)cc(C)c1Cl [Chloroxylenol]
Biofilm inactivation (S. epidermidis biofilm [1]): >5 log log CFU
Biofilm dispersal when DspB and antimicrobial were added together (S. epidermidis biofilm [2]; buffer): ≥ 74%

O=C/C=C/c1ccccc1 [Cinnamaldehyde]
Effect of DspB on activity of the antimicrobial against biofilm embedded S. epidermidis (S. epidermidis biofilm [1]): enhanced
Effect of DspB on activity of the antimicrobial against biofilm embedded E. coli (E. coli biofilm; P<0.05): enhanced
Biofilm dispersal when DspB and antimicrobial were added together (S. epidermidis biofilm [2]; buffer): ≥ 78%
Biofilm dispersal of gel containing DspB and antimicrobial compared with gel containing DspB alone (S. epidermidis biofilm [4]): similar
Synergy or compatibility with DspB, E: enzymatic (DspB [5]; [6]): E: synergy
Enzymatic activity of DspB in the presence of the antimicrobial compared with DspB control (DspB [5]; wound gel): Higher enzymatic activity

O=C(O)C=Cc1ccccc1 [Cinnamic acid]
Biofilm inactivation (S. epidermidis biofilm [1]): <0.5 log log CFU
Effect of DspB on activity of the antimicrobial against biofilm embedded S. epidermidis (S. epidermidis biofilm [1]): did not show any enhancement

CNC1C(O)[C@@H](O[C@H]2C(N)C[C@H](N)C(O[C@H]3OC([C@@H](C)N)CCC3N)C2O)OC[C@]1(C)O (some centres unmarked) [Gentamicin sulfate]
Biofilm dispersal of gel containing DspB and antimicrobial compared with gel containing DspB alone (S. epidermidis biofilm [4]): similar
Synergy or compatibility with DspB, E: enzymatic (DspB [5]; [6]): E: compatible

CC(=O)CC/C=C(\C)CCC=C(C)C [Geranyl acetone]
Biofilm inactivation (S. epidermidis biofilm [1]): <0.5 log log CFU

Cc1ncc([N+](=O)[O-])n1CCO [Metronidazole]
Biofilm dispersal of gel containing DspB and antimicrobial compared with gel containing DspB alone (S. epidermidis biofilm [4]): similar
Synergy or compatibility with DspB, E: enzymatic (DspB [5]; [6]): E: compatible

C/C(=C\C(=O)OCCCCCCCCC(=O)O)C[C@@H]1OC[C@H](C[C@@H]2O[C@H]2[C@@H](C)[C@H](C)O)[C@@H](O)[C@H]1O [Mupirocin]
Synergy or compatibility with DspB, E: enzymatic (DspB [5]; [6]): E: synergy
DspB activity in the presence of the antimicrobial, enzymatic assay (DspB [5]; wound gel, for up to 2 h, relative to 100 μg/mL DspB control): > 100%

CC(C)=CCC/C(C)=C\CO [Nerol]
Biofilm inactivation (S. epidermidis biofilm [1]): <0.5 log log CFU

C=CC(C)(O)CCC=C(C)CCC=C(C)C (centres unmarked) [Nerolidol]
Biofilm inactivation (S. epidermidis biofilm [1]): <0.5 log log CFU

CCCCCCCCN=c1ccn(CCCCCCCCCCn2ccc(=NCCCCCCCC)cc2)cc1.Cl.Cl [Octenidine dihydrochloride, octenidine dihydrochloride]
Biofilm inactivation (S. epidermidis biofilm [1]): >5 log log CFU
Effect of DspB on activity of the antimicrobial against biofilm embedded S. epidermidis (S. epidermidis biofilm [1]; dihydrochloride): enhanced activity
Effect of DspB on activity of the antimicrobial against biofilm embedded S. epidermidis (S. epidermidis biofilm [1]; listed as ODC, dihydrochloride): enhanced
Effect of DspB on activity of the antimicrobial against biofilm embedded E. coli (E. coli biofilm; P<0.05, dihydrochloride): enhanced activity
Effect of DspB on activity of the antimicrobial against biofilm embedded E. coli (E. coli biofilm; P<0.05, listed as ODC, dihydrochloride): enhanced
Biofilm dispersal when 20 μg/ml DspB was mixed with the antimicrobial (S. epidermidis biofilm [2]; biofilms treated for 10 min, data not presented): no biofilm dispersal was observed
Biofilm dispersal when DspB and antimicrobial were added together for 2 h (S. epidermidis biofilm [2]; buffer, 100 μg/ml DspB, 0.01% ODC): minimal biofilm dispersal
Biofilm dispersal of gel containing DspB and antimicrobial compared with gel containing DspB alone (S. epidermidis biofilm [4]): similar
Synergy or compatibility with DspB, E: enzymatic (DspB [5]; [6]): E: compatible

CC[C@H](C)CCCCC(=O)N[C@@H](CCN)C(=O)N[C@H](C(=O)NC(CCN)C(=O)N[C@H]1CCNC(=O)[C@H]([C@@H](C)O)NC(=O)[C@H](CCN)NC(=O)[C@H](CCN)NC(=O)[C@H](CC(C)C)NC(=O)[C@@H](Cc2ccccc2)NC(=O)[C@@H](CCN)NC1=O)[C@@H](C)O (some centres unmarked) [Polymyxin B sulfate] (X1-[Dab]T[ξDab][Dab][dDab][dF]L[Dab][Dab]T; lactam 4-C)
Biofilm dispersal of gel containing DspB and antimicrobial compared with gel containing DspB alone (S. epidermidis biofilm [4]): similar
Synergy or compatibility with DspB, E: enzymatic (DspB [5]; [6]): E: compatible

Cc1ccc(C(C)C)c(O)c1 [Thymol]
Biofilm inactivation (S. epidermidis biofilm [1]): >5 log log CFU
Effect of DspB on activity of the antimicrobial against biofilm embedded S. epidermidis (S. epidermidis biofilm [1]): enhanced

Benzalkonium chloride
Synergy or compatibility with DspB, M: microbiological (biofilm dispersal assay; biofilm inactivation not tested) (S. epidermidis biofilm [2]): M: no synergy
Synergy or compatibility with DspB, E: enzymatic (DspB [3]): E: no synergy
Synergy or compatibility with DspB, M: microbiological (biofilm dispersal assay; biofilm inactivation not tested) (S. epidermidis biofilm [4]): M: compatible
Synergy or compatibility with DspB, E: enzymatic (DspB [5]): E: compatible

BisEDT
Biofilm inactivation (S. epidermidis biofilm [1]): <1 log log CFU

Nisin
Biofilm inactivation (S. epidermidis biofilm [1]): <0.5 log log CFU
